In patent US8673906B2, “Chromenone derivatives” (AstraZeneca AB, priority 2010, dated 2014):

Target: PI3Kβ (Homo sapiens (Human), UniProt P42338)
Experiment: In vitro enzyme inhibition assay (Kinase Glo based enzyme activity assay)
Assay type: biochemical
Settings: Test (a), human recombinant enzyme; read-out: PI3Kβ inhibition, IC50
Experimental: (a) In Vitro Enzyme Inhibition Assay
The inhibition of PI3Kβ, PI3Kα, PI3Kγ and PI3Kδ was evaluated in a Kinase Glo based enzyme activity assay using human recombinant enzymes. The assay measures depletion of ATP after incubation with enzyme, PIP2 and ATP plus compound. ATP at the end of the reaction is detected by addition of Kinase Glo reagent, in this the Ultra Glo™ luciferase (Promega) uses the ATP as a substrate to catalyze the mono-oxygenation of luciferin and the generation of light. A direct relationship exists between the luminescence measured with the Kinase-Glo Plus Reagent and the amount of ATP remaining in a completed kinase reaction and luminescence is inversely related to kinase activity. Twelve different compound concentrations were tested and raw data from the inhibition of PI3 Kb, PI3Kα, PI3Kγ and PI3Kδ was plotted versus inhibitor concentration.
Compounds in 100% DMSO were added to assay plates by acoustic dispensing. PI3Kβ was added in a Tris buffer (50 mM Tris pH7.4, 0.05% CHAPS, 2.1 mM DTT, and 10 mM MgCl2) and allowed to preincubate with compound for 20 minutes prior to addition of substrate solution containing PIP2 and ATP. The enzyme reaction was stopped after 80 minutes by the addition of Kinase Glo detection solution. Plates were left for 30 minutes at room temperature then read on a Pherastar Instrument (Luminescence ATP 384 program) setting gain on max well. The final concentration of DMSO, ATP and PIP2 in the assay were, 1%, 80 μM, and 80 μM respectively.
IC50 values were calculated using a log curve fitting to a non-linear regression package, fitting raw data to inhibitor concentration.

Sequence of PI3Kβ (P42338 whole entry): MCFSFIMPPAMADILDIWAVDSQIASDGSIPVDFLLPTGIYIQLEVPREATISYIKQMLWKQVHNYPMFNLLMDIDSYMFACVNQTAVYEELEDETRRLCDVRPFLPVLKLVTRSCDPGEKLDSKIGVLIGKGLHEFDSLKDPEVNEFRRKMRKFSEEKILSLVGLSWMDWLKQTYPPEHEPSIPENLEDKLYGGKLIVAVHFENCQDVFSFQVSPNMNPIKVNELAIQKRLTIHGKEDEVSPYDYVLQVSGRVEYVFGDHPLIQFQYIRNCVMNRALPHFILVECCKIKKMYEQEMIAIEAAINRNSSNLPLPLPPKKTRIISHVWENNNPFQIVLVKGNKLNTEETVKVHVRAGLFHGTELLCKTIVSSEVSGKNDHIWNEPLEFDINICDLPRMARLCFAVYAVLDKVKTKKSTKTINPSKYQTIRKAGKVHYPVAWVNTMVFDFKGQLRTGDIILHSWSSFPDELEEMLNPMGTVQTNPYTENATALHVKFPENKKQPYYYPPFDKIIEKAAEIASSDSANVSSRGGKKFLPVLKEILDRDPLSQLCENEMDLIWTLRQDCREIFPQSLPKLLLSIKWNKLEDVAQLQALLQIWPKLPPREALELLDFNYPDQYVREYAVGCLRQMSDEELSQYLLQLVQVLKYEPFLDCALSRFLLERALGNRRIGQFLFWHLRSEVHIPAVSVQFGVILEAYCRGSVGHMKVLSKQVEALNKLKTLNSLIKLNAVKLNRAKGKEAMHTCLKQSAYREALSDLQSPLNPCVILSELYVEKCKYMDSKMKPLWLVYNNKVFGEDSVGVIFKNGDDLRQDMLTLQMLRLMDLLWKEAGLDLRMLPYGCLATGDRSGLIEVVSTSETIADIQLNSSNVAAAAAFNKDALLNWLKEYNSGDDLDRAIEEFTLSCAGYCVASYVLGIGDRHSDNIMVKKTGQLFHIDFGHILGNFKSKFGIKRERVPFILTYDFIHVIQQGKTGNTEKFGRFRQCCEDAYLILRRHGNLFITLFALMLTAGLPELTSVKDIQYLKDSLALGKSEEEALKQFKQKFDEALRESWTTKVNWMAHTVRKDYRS
Sequence of PI3Kβ (P27986 whole entry partner): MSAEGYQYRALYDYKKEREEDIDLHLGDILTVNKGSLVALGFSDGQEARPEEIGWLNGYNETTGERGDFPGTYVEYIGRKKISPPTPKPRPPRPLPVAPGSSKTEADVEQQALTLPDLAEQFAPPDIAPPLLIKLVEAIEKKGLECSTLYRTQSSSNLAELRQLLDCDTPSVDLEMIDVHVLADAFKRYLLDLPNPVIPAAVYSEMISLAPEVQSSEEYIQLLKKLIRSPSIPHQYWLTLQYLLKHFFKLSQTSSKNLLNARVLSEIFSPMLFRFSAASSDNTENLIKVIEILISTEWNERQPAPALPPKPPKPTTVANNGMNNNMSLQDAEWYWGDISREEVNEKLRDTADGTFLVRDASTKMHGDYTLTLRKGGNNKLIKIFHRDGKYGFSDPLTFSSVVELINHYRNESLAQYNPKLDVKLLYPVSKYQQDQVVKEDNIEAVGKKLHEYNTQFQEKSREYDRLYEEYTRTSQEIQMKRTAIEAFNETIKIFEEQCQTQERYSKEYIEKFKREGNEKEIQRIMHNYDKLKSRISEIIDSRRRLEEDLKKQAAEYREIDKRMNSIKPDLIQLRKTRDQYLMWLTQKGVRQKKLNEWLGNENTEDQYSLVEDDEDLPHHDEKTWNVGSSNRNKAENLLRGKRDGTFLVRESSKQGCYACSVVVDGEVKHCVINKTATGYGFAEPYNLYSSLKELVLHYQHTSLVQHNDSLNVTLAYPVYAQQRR

Row | SMILES | IC50 [nM]
1 | CC(c1cc(C(=O)N2CCC(O)CC2)cc2c(=O)cc(N3CCO[C@H](C)C3)oc12)N(C)c1cc(F)cc(F)c1 (stereo partly drawn) [Example 10.03, 8-(1-((3,5-difluorophenyl)(methyl)amino)ethyl)-6-(4-hydroxypiperidine-1-carbonyl)-2-((R)-2-methylmorpholino)-4H-chromen-4-one] | 9
2 | CC(Nc1cc(F)cc(F)c1)c1cc(C(=O)N2CCN(C)CC2)cc2c(=O)cc(N3CCOCC3)oc12 (centres unmarked) [Example 4.03, 8-(1-(3,5-difluorophenylamino)ethyl)-6-(4-methylpiperazine-1-carbonyl)-2-morpholino-4H-chromen-4-one] | 4
3 | CC(Nc1cccc(Cl)c1F)c1cc(C(=O)N(C)C)cc2c(=O)cc(N3CCOCC3)oc12 (single isomer, unassigned) [Example 3.04a, 8-(1-(3-chloro-2-fluorophenylamino)ethyl)-N,N-dimethyl-2-morpholino-4-oxo-4H-chromene-6-carboxamide] | 2250
4 | CC(Nc1cc(F)cc(F)c1)c1cc(C(=O)N(C)C)cc2c(=O)cc(N3CCO[C@@H](C)C3)oc12 (single isomer, unassigned) [Example 9.02a] | 22700
5 | CC(Nc1cc(F)cc(F)c1)c1cc(C(=O)N2CCSCC2)cc2c(=O)cc(N3CCOCC3)oc12 (centres unmarked) [Example 4.05, 8-(1-(3,5-difluorophenylamino)ethyl)-2-morpholino-6-(thiomorpholine-4-carbonyl)-4H-chromen-4-one] | 8
6 | CC(Nc1cccc(C#N)c1)c1cc(C(=O)N(C)C)cc2c(=O)cc(N3CCOCC3)oc12 (centres unmarked) [Example 3.18, 8-(1-(3-cyanophenylamino)ethyl)-N,N-dimethyl-2-morpholino-4-oxo-4H-chromene-6-carboxamide] | 10
7 | CC(Nc1cc(F)cc(F)c1)c1cc(C(=O)N2CC[C@H](O)C2)cc2c(=O)cc(N3CCOCC3)oc12 (single isomer, unassigned) [Example 2.08] | 7
8 | CC(Nc1cc(F)cc(F)c1)c1cc(C(=O)NCC2CC2)cc2c(=O)cc(N3CCOCC3)oc12 (centres unmarked) [Example 4.23, N-(cyclopropylmethyl)-8-(1-(3,5-difluorophenylamino)ethyl)-2-morpholino-4-oxo-4H-chromene-6-carboxamide] | 3
9 | CC(Nc1cccc(F)c1)c1cc(C(=O)NCCN(C)C)cc2c(=O)cc(N3CCOCC3)oc12 (centres unmarked) [Example 1.01, N-(2-(dimethylamino)ethyl)-8-(1-(3-fluorophenylamino)ethyl)-2-morpholino-4-oxo-4H-chromene-6-carboxamide] | 1
10 | CC(Nc1cc(F)cc(F)c1)c1cc(C(=O)N2CC(F)C2)cc2c(=O)cc(N3CCOCC3)oc12 (centres unmarked) [Example 4.13, 8-(1-(3,5-difluorophenylamino)ethyl)-6-(3-fluoroazetidine-1-carbonyl)-2-morpholino-4H-chromen-4-one] | 9
11 | CCN(C)C(=O)c1cc(C(C)Nc2cc(F)cc(F)c2)c2oc(N3CCOCC3)cc(=O)c2c1 (centres unmarked) [Example 4.11, 8-(1-(3,5-difluorophenylamino)ethyl)-N-ethyl-N-methyl-2-morpholino-4-oxo-4H-chromene-6-carboxamide] | 2
12 | CC(Nc1cccc(F)c1C#N)c1cc(C(=O)N(C)C)cc2c(=O)cc(N3CCOCC3)oc12 (centres unmarked) [Example 3.36, 8-(1-(2-cyano-3-fluorophenylamino)ethyl)-N,N-dimethyl-2-morpholino-4-oxo-4H-chromene-6-carboxamide] | 24
13 | CC(Nc1cc(F)cc(F)c1)c1cc(C(=O)N2CCCCCC2)cc2c(=O)cc(N3CCOCC3)oc12 (centres unmarked) [Example 4.06, 6-(azepane-1-carbonyl)-8-(1-(3,5-difluorophenylamino)ethyl)-2-morpholino-4H-chromen-4-one] | 4
14 | CC(Nc1cc(F)cc(F)c1)c1cc(C(=O)N(C)C)cc2c(=O)cc(N3CCO[C@@H](C)C3)oc12 (stereo partly drawn) [Example 9.02, 8-(1-(3,5-difluorophenylamino)ethyl)-N,N-dimethyl-2-((S)-2-methylmorpholino)-4-oxo-4H-chromene-6-carboxamide] | 11
15 | CC(Nc1cc(F)cc(F)c1)c1cc(C(=O)N2CCNCC2)cc2c(=O)cc(N3CCOCC3)oc12 (centres unmarked) [Example 4.04, 8-(1-(3,5-difluorophenylamino)ethyl)-2-morpholino-6-(piperazine-1-carbonyl)-4H-chromen-4-one] | 4
16 | CC(c1cc(C(=O)N(C)C)cc2c(=O)cc(N3CCOCC3)oc12)N(C)c1ccc(F)c(Cl)c1 (centres unmarked) [Example 3.08, 8-(1-((3-chloro-4-fluorophenyl)(methyl)amino)ethyl)-N,N-dimethyl-2-morpholino-4-oxo-4H-chromene-6-carboxamide] | 11
17 | CC(Nc1ccccc1)c1cc(C(=O)NCCN(C)C)cc2c(=O)cc(N3CCOCC3)oc12 (centres unmarked) [Example 1.02, N-(2-(dimethylamino)ethyl)-2-morpholino-4-oxo-8-(1-(phenylamino)ethyl)-4H-chromene-6-carboxamide] | 2
18 | CC(c1cc(C(=O)N(C)CCN(C)C)cc2c(=O)cc(N3CCOCC3)oc12)N(C)c1ccc(F)cc1 (centres unmarked) [Example 3.02, N-(2-(dimethylamino)ethyl)-8-(1-((4-fluorophenyl)(methyl)amino)ethyl)-N-methyl-2-morpholino-4-oxo-4H-chromene-6-carboxamide] | 11
19 | CC(Nc1cccc(Cl)c1F)c1cc(C(=O)N2CCC(O)CC2)cc2c(=O)cc(N3CCOCC3)oc12 (centres unmarked) [Example 2.06, 8-(1-(3-chloro-2-fluorophenylamino)ethyl)-6-(4-hydroxypiperidine-1-carbonyl)-2-morpholino-4H-chromen-4-one] | 6
20 | CC(Nc1ccc(F)cc1)c1cc(C(=O)N(C)C)cc2c(=O)cc(N3CCOCC3)oc12 (centres unmarked) [Example 2.01, 8-(1-(4-fluorophenylamino)ethyl)-N,N-dimethyl-2-morpholino-4-oxo-4H-chromene-6-carboxamide] | 7
21 | CCCNC(=O)c1cc(C(C)Nc2cc(F)cc(F)c2)c2oc(N3CCOCC3)cc(=O)c2c1 (centres unmarked) [Example 4.16, 8-(1-(3,5-difluorophenylamino)ethyl)-2-morpholino-4-oxo-N-propyl-4H-chromene-6-carboxamide] | 9
22 | CC(Nc1cccc(F)c1F)c1cc(C(=O)N(C)C)cc2c(=O)cc(N3CCOCC3)oc12 (centres unmarked) [Example 3.10, 8-(1-(2,3-difluorophenylamino)ethyl)-N,N-dimethyl-2-morpholino-4-oxo-4H-chromene-6-carboxamide] | 4
23 | CC(Nc1cc(F)cc(F)c1)c1cc(C(=O)N2CCCOCC2)cc2c(=O)cc(N3CCOCC3)oc12 (centres unmarked) [Example 4.25, 8-(1-(3,5-difluorophenylamino)ethyl)-2-morpholino-6-(1,4-oxazepane-4-carbonyl)-4H-chromen-4-one] | 5
24 | CC(Nc1cc(Cl)cc(Cl)c1)c1cc(C(=O)N(C)C)cc2c(=O)cc(N3CCOCC3)oc12 (centres unmarked) [Example 3.33, 8-(1-(3,5-dichlorophenylamino)ethyl)-N,N-dimethyl-2-morpholino-4-oxo-4H-chromene-6-carboxamide] | 5
25 | COc1c(F)cccc1NC(C)c1cc(C(=O)N(C)C)cc2c(=O)cc(N3CCOCC3)oc12 (centres unmarked) [Example 3.31, 8-(1-(3-fluoro-2-methoxyphenylamino)ethyl)-N,N-dimethyl-2-morpholino-4-oxo-4H-chromene-6-carboxamide] | 6
26 | CC(Nc1cc(F)cc(F)c1)c1cc(C(=O)N(C)C)cc2c(=O)cc(N3CCO[C@H](C)C3)oc12 (stereo partly drawn) [Example 9.01, 8-(1-(3,5-difluorophenylamino)ethyl)-N,N-dimethyl-2-((R)-2-methylmorpholino)-4-oxo-4H-chromene-6-carboxamide] | 4
27 | CC(Nc1cc(F)cc(F)c1)c1cc(C(=O)N(C)C)cc2c(=O)cc(N3CCO[C@@H](C)C3)oc12 (single isomer, unassigned) [Example 9.02b] | 7
28 | COc1cc(F)cc(NC(C)c2cc(C(=O)N(C)C)cc3c(=O)cc(N4CCOCC4)oc23)c1 (centres unmarked) [Example 3.30, 8-(1-(3-fluoro-5-methoxyphenylamino)ethyl)-N,N-dimethyl-2-morpholino-4-oxo-4H-chromene-6-carboxamide] | 4

Same assay, conditions: mean IC50 value calculated from a larger number of replicates; read-out: PI3Kβ inhibition, IC50 (value in brackets)

Row | SMILES | IC50 [nM]
29 | CC(Nc1cccc(F)c1)c1cc(C(=O)N(C)C)cc2c(=O)cc(N3CCOCC3)oc12 (centres unmarked) [Example 3.12, 8-(1-(3-fluorophenylamino)ethyl)-N,N-dimethyl-2-morpholino-4-oxo-4H-chromene-6-carboxamide] | 5
